In the assay the test system is mouse T lymphocytes. Nature of the assay: T-cell proliferation assay (ionomycin plus PMA induced T-cell stimulation, tritiated thymidine uptake). The note with it: T-lymphocyte, 10 ng/ml, standard. The assay is classed as cell-based, C57B1/6 mice. On the procedure: The principle of this assay is to measure the proliferation of mouse T lymphocytes stimulated with the combination of ionomycin plus PMA. A positive sample in this assay will inhibit T-cell proliferation, as indicated by reduced tritiated thymidine uptake.
Cells were pelleted by centrifugation at 1500 rpm for 8 minutes. Contaminating red cells were removed by treating the pellet with ammonium chloride lysing buffer (GIBCO) for 2 minutes at 4°C. Cold medium was added and cells were again centrifuged at 1500 rpm for 8 minutes. T lymphocytes were then isolated by separation of the cell suspension on nylon wool columns as follows: Nylon wool columns were prepared by packing approximately 4 grams of washed and dried nylon wool into 20 ml plastic syringes. The columns were sterilized by autoclaving at 250°F for 30 minutes. […]
The cell suspension was immediately distributed into 96 well flat-bottom microculture plates (Costar) at 200 µl/well. […] The proliferation of T lymphocytes was assessed by measurement of tritiated thymidine incorporation. […] Radioactivity of filter discs corresponding to individual wells was measured by standard liquid scintillation counting methods (Betacounter). Mean counts per minute of replicate wells were calculated and the results expressed as percent inhibition of tritiated thymidine uptake (proliferation) as follows: [formula]

As a reminder, the inhibition is the share of the control response that was lost under treatment. As to `C=CC[C@@H]1/C=C(\C)C[C@H](C)C[C@H](OC)[C@H]2O[C@@](O)(C(=O)C(=O)N3CCCC[C@H]3C(=O)O[C@H](/C(C)=C/[C@@H]3CC[C@@H](O)[C@H](OC)C3)[C@H](C)[C@@H](O)CC1=O)[C@H](C)C[C@@H]2OC` [L-679,934], the inhibition at 0.01 µg/mL amounted to 99%.

The record behind these values is patent EP0396400A1, “Microbial transformation product” (Merck & Co., Inc., priority 1989, dated 1990).
